According to patent US10227331B2 (priority 2015, dated 2019):
Like-named read-outs stand apart in the source and are kept apart here.

How the values were obtained:
IMP-1 = IMP-1 (Serratia marcescens, UniProt P52699); experiment: biochemical; assay type: biochemical
How it was run: (§1)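 IC50 values derive from 4-parameter fits of percent inhibition against inhibitor concentration on semi-log axes. Activity was monitored by fluorescence with the CCF2-FA substrate after a 2-hour, 25° C incubation of compound, enzyme and substrate.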

NDM-1 = NDM-1 (Klebsiella pneumoniae, UniProt C7C422); experiment: biochemical; assay type: biochemical; details: CCF2-FA substrate, 2 hours at 25° C; read-out: NDM-1 IC50
How it was run: as §1

VIM-1 = VIM-1 (Pseudomonas aeruginosa (strain ATCC 15692 / DSM 22644 / CIP 104116 / JCM 14847 / LMG 12228 / 1C / PRS 101 / PAO1), UniProt A0A0F7KYQ8); experiment: biochemical; details: CCF2-FA substrate, 2 hours at 25° C
How it was run: as §1

[1] = test system: Escherichia coli expressing NDM-1 (CLB30005, CLB30016); assay type: cell-based; details: with imipenem 1 μg/ml, 95% inhibition of bacterial growth; for Escherichia coli MITC95: NDM-1 (CLB30016)
How it was run: (§2)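 Restoration of imipenem susceptibility (1 μg/ml imipenem) was judged by absorbance after 22–24 h at 35° C. Test compound was added to bacteria suspended 1:100 in 1.1× CAMHB from overnight blood-agar cultures.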

[2] = test system: Klebsiella pneumoniae expressing VIM-1 (IHMA599644); assay type: cell-based; details: with imipenem 1 μg/ml, 95% inhibition of bacterial growth; for Klebsiella pneumoniae MITC95: VIM-1 (IHMA599644)
How it was run: as §2

[3] = test system: Serratia marcescens expressing IMP-1 (CL5741); assay type: cell-based; details: with imipenem 1 μg/ml, 95% inhibition of bacterial growth; for Serratia marcescens MITC95: IMP-1 (CL5741)
How it was run: as §2

[4] = test system: P. aeruginosa expressing IMP-1, efflux+ (MB9798); assay type: cell-based, Pseudomonas aeruginosa; details: for P. aeruginosa expressing IMP-1, efflux+ (MB9798) MITC95: imipenem at 2 μg/mL, in the presence of a class A, C, D serine β-lactamase inhibitor closely related to relebactam; for Efflux ratio: ratio MITC95 PA_9798/MITC95 PA_9799
From the text: (§3) The strain background is Pseudomonas aeruginosa PAO1.

[5] = test system: P. aeruginosa expressing IMP-1, efflux− (MB9799); experiment: Efflux: concentration of MBL inhibitor which restores susceptibility to imipenem; assay type: cell-based, Pseudomonas aeruginosa; details: imipenem at 2 μg/mL, in the presence of a class A, C, D serine β-lactamase inhibitor closely related to relebactam
From the text: as §3

[6] = CCF2-FA substrate, 2 hours at 25° C, read-out: IMP-1 IC50

NDM-1, sequence (C7C422 whole entry, looked up, species assumed): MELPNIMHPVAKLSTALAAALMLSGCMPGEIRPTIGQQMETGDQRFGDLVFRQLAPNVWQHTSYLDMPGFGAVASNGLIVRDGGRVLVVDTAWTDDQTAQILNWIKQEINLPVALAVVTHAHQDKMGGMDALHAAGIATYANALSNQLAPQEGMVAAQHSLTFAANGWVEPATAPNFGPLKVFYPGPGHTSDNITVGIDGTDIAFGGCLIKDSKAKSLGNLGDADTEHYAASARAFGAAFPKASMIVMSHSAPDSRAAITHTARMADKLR
IMP-1, sequence (P52699 whole entry, looked up, species assumed): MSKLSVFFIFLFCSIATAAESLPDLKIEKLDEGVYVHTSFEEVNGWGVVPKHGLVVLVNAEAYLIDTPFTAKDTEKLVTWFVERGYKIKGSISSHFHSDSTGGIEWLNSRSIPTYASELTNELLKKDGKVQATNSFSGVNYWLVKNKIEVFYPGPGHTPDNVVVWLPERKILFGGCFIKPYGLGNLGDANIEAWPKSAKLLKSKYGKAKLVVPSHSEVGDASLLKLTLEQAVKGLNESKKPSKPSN

Structure (SMILES) | IC50 (IMP-1; [6]) | IC50 (NDM-1) | IC50 (VIM-1) | Escherichia coli expressing NDM-1 (CLB30016) MITC95 [1] | Klebsiella pneumoniae expressing VIM-1 (IHMA599644) MITC95 [2] | Serratia marcescens expressing IMP-1 (CL5741) MITC95 [3] | P. aeruginosa expressing IMP-1, efflux+ (MB9798) MITC95 [4] | Efflux ratio [4] | P. aeruginosa expressing IMP-1, efflux− (MB9799) MITC95 [5] | Escherichia coli MITC95 [1] | Klebsiella pneumoniae MITC95 [2] | Serratia marcescens MITC95 [3] | IC50 (IMP-1)
Nc1nc2c(-c3ccc(S(=O)(=O)CC4(N)CC4)c(S(N)(=O)=O)c3-c3nn[nH]n3)cccc2s1 [Example 95, 3-(2-aminobenzo[d]thiazol-4-yl)-6-((1-aminocyclopropyl)methylsulfonyl)-2-(2H-tetrazol-5-yl)benzenesulfonamide] | 0.221 nM | 0.138 nM | 0.293 nM | 1.563 µM | 6.25 µM | 1.563 µM | 3.125 µM | 2.00 | 1.563 µM |  |  |  | 
Nc1cncc(-c2ccc(S(=O)(=O)C3CNC3)c(S(N)(=O)=O)c2-c2nnn[nH]2)c1.O=C(O)C(F)(F)F [Example 112, 3-((4-(5-aminopyridin-3-yl)-2-sulfamoyl-3-(1H-tetrazol-5-yl)phenyl)sulfonyl)azetidin-1-ium 2,2,2-trifluoroacetate] | 8.68 nM | 2.51 nM | 1.79 nM | 3.125 µM | 6.25 µM | 3.125 µM | 12.5 µM | 4.00 | 3.125 µM |  |  |  | 
NS(=O)(=O)c1c([S+]([O-])C2CNC2)ccc(-c2ccc(C3CCNCC3)cc2)c1-c1nn[nH]n1 (stereo not drawn) [Example 5, 4-(Azetidin-3-ylsulfinyl)-4′-(piperidin-4-yl)-2-(2H-tetrazol-5-yl)-[1,1′-biphenyl]-3-sulfonamide] | 6.88 nM | 1.98 nM | 2.02 nM | 3.125 µM | 3.125 µM | 3.125 µM | 3.125 µM | 2.00 | 1.563 µM |  |  |  | 
N=C(N)Nc1ccccc1-c1ccc(S(=O)(=O)C2CNC2)c(S(N)(=O)=O)c1-c1nn[nH]n1 [Example 221, 4-(azetidin-3-ylsulfonyl)-2′-guanidino-2-(2H-tetrazol-5-yl)-[1,1′-biphenyl]-3-sulfonamide] | 44 nM | 5.13 nM | 6.95 nM | 6.25 µM | 12.5 µM | 12.5 µM | 50 µM | 16.00 | 3.125 µM |  |  |  | 
NCCS(=O)(=O)c1ccc(-c2cccc3[nH]c(C(F)(F)CN)nc23)c(-c2nn[nH]n2)c1S(N)(=O)=O [Example 307, 3-(2-(2-amino-1,1-difluoroethyl)-1H-benzo[d]imidazol-4-yl)-6-((2-aminoethyl)sulfonyl)-2-(2H-tetrazol-5-yl) benzenesulfonamide] | 0.0868 nM | 0.0372 nM | 0.0306 nM |  |  |  | 0.3906 µM | 1.00 | 0.3906 µM | 0.7813 µM | 0.7813 µM | 0.7813 µM | 
Nc1n[nH]c2ccc(-c3ccc(S(=O)(=O)C4CNC4)c(S(N)(=O)=O)c3-c3nnn[nH]3)cc12 [Example 264, 3-(3-amino-1H-indazol-5-yl)-6-(azetidin-3-ylsulfonyl)-2-(1H-tetrazol-5-yl) benzenesulfonamide] | 1.82 nM | 0.364 nM | 0.175 nM |  |  |  | 6.25 µM | 8.00 | 0.7813 µM | 3.125 µM | 3.125 µM | 1.563 µM | 
NCCS(=O)(=O)c1ccc(-c2cccc3oc(N)nc23)c(-c2nn[nH]n2)c1S(N)(=O)=O [Example 76, 3-(2-aminobenzo[d]oxazol-4-yl)-6-(2-aminoethylsulfonyl)-2-(2H-tetrazol-5-yl)benzenesulfonamide] |  | 0.148 nM | 0.24 nM | 0.7813 µM | 1.563 µM | 0.7813 µM | 0.7813 µM | 1.00 | 0.7813 µM |  |  |  | 0.258 nM
CS(=O)(=O)Nc1nc2c(-c3ccc(S(=O)(=O)CCN)c(S(N)(=O)=O)c3-c3nn[nH]n3)cccc2s1 [Example 83, 6-(2-aminoethylsulfonyl)-3-(2-(methylsulfonamido)benzo[d]thiazol-4-yl)-2-(2H-tetrazol-5-yl)benzenesulfonamide] | 0.341 nM | 0.117 nM | 0.263 nM | 6.25 µM | 12.5 µM | 6.25 µM | 12.5 µM | 2.00 | 6.25 µM |  |  |  | 
NCCNC(=O)c1cccc(-c2ccc(S(=O)(=O)CCN)c(S(N)(=O)=O)c2-c2nn[nH]n2)c1N [Example 378, 2-amino-N-(2-aminoethyl)-4′-((2-aminoethyl)sulfonyl)-3′-sulfamoyl-2′-(2H-tetrazol-5-yl)-[1,1′-biphenyl]-3-carboxamide] | 5.1 nM | 3.72 nM | 0.544 nM |  |  |  | 1.563 µM | 2.00 | 0.7813 µM | 0.7813 µM | 1.563 µM | 0.7813 µM | 
Nc1nc2c(-c3ccc(S(=O)(=O)C4CN(CCO)C4)c(S(N)(=O)=O)c3-c3nn[nH]n3)cccc2[nH]1 [Example 53, 3-(2-amino-1H-benzo[d]imidazol-4-yl)-6-(1-(2-hydroxyethyl)azetidin-3-ylsulfonyl)-2-(2H-tetrazol-5-yl)benzenesulfonamide] | 6.12 nM | 0.458 nM | 1.54 nM | 12.5 µM | 12.5 µM | 6.25 µM | 12.5 µM | 2.00 | 6.25 µM |  |  |  | 
NCCS(=O)(=O)c1ccc(-c2cccc(-n3cccn3)c2)c(-c2nnn[nH]2)c1S(N)(=O)=O.O=C(O)C(F)(F)F [Example 156, 2-((3′-(1H-pyrazol-1-yl)-3-sulfamoyl-2-(1H-tetrazol-5-yl)-[1,1′-biphenyl]-4-yl)sulfonyl)ethanaminium 2,2,2-trifluoroacetate] | 0.981 nM | 1.08 nM | 0.743 nM | 0.7813 µM | 6.25 µM | 1.563 µM | 50 µM | 31.99 | 1.563 µM |  |  |  | 
